Laboratory results from US6673931B2, “Naphthalenyl piperidines as renin inhibitors” (Hoffman-La Roche Inc., priority 1999, dated 2004).
Counter-ions that a name gives are not always drawn.

Each compound was assayed against T1, human renin (Homo sapiens, UniProt P00797) (assay: In vitro test with pure human renin (angiotensin I production via RIA)). Details: human tetradecapeptide renin substrate (hTD), pH 7.4, three hours at 37° C.
T1 sequence (P00797 67-406): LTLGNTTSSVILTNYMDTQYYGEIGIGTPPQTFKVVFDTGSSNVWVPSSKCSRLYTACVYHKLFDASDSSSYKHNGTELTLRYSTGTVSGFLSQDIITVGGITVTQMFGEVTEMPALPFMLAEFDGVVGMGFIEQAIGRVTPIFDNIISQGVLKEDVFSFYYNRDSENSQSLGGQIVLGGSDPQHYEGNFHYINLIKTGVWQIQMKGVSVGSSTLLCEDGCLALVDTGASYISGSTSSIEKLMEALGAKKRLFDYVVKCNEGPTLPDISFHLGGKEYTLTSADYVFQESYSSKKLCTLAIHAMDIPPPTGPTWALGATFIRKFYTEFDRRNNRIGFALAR
Assay type: biochemical
Experimental: The tests can be carried out in analogy to those described by D. T. Pals et al. in Hypertension Vol. 8, 1105-1112 (1986) or J. Boger et al. in J. Med. Chem. 28, 1779-1790 (1985) or J. F. Dellaria et al. in J. Med. Chem. 30,2137-2144 (1987) or T. Kokubu et al. in Biochem. Biophys. Res. Commun. 118, 929-933 (1984):
In vitro test with pure human renin:
The test is carried out in Eppendorf test tubes. The incubation mixture consists of (1) 100 μl of human renin in buffer A (0.1 M sodium phosphate solution, pH 7.4, containing 0.1% bovine serum albumin, 0.1% sodium azide and 1 mM ethylenediaminetetraacetic acid), sufficient for a renin activity of 2-3 ng of angiotensin I/ml/hr.; (2) 145 μl of buffer A: (3) 30 μl of 10 mM human tetradecapeptide renin substrate (hTD) in 10 mM hydrochloric acid: (4) 15 μl of dimethyl sulphoxide with or without inhibitor and (5) 10 μl of a 0.03 molar solution of hydroxyquinoline sulphate in water.
The samples are incubated for three hours at 37° C. and, respectively, 4° C. in triplicate. 2×100 μl samples per test tube are used in order to measure the production of angiotensin I via RIA (standard radioimmunoassay; clinical assay solid phase kit). Cross reactivities of the antibody used in the RIA are: angiotensin I 100%; angiotensin II 0.0013%; hTD (angiotensin I-Val-Ile-His-Ser-OH) 0.09%. The production of angiotensin I is determined by the difference between the test at 37° C. and that at 4° C.
The following controls are carried out:
(a) Incubation of hTD samples without renin and without inhibitor at 37° C. and 40° C. The difference between these two values gives the base value of the angiotensin I production.
(b) Incubation of hTD samples with renin, but without inhibitor at 37° C. and 4° C. The difference between these values gives the maximum value of the angiotensin I production.
In each sample the base value of the angiotensin I production is subtracted from the angiotensin I production which is determined. The difference between the maximum value and the base value gives the value of the maximum substrate hydrolysis (=100%) by renin.
The results are given as IC50 values which denote the concentration of the inhibitor at which the enzymatic activity is inhibited by 50%. The IC50 values are determined from a linear regression curve from a logit-log plot.

Row | IC50 [nM] | SMILES
1 | 0.03 | COCCOC[C@@H](O)CO[C@@H]1CNC[C@H](OCc2cc(OC)c3ccccc3c2)[C@H]1c1ccc(OCCCOCc2ccccc2OC)cc1 [B, (R)-1-[(3S,4R,5R)-4-[4-[3-(2-methoxy-benzyloxy)-propoxy]-phenyl]-5-(4-methoxy-naphthalen-2-ylmethoxy)-piperidin-3-yloxy]-3-(2-methoxy-ethoxy)-propan-2-ol]
2 | 0.08 | COc1cc(CO[C@H]2CNC[C@@H](OC[C@H](O)CO)[C@@H]2c2ccc(OCCCOc3ccccc3[N+](=O)[O-])cc2)cc2ccccc12 [C, (R)-3-[(3S,4R,5R)-5-(4-methoxy-naphthalen-2-ylmethoxy)-4-[4-[3-(2-nitro-phenoxy)-propoxy]-phenyl]-piperidin-3-yloxy]-propane-1,2-diol]
3 | 0.07 | COc1ccccc1COCCCOc1ccc([C@H]2[C@H](Cn3ccnc3)CNC[C@@H]2OCc2cc(OC)c3ccccc3c2)cc1 [E, (3S,4R,5R)-3-imidazol-1-ylmethyl-4-[4-[3-(2-methoxy-benzyloxy)-propoxy]-phenyl]-5-(4-methoxy-naphthalen-2-ylmethoxy)-piperidine dihydrochloride]
4 | 0.06 | COC[C@@H](O)CO[C@@H]1CNC[C@H](OCc2cc(OC)c3ccccc3c2)[C@H]1c1ccc(OCCCOCc2ccccc2OC)cc1 [A, (R)-1-methoxy-3-[(3S,4R,5R)-4-[4-[3-(2-methoxy-benzyloxy)-propoxy]-phenyl]-5-(4-methoxy-naphthalen-2-ylmethoxy)-piperidin-3-yloxy]-propan-2-ol]
5 | 0.02 | COc1ccccc1COCCCOc1ccc([C@H]2[C@H](CO)CNC[C@@H]2OCc2cc(OC)c3ccccc3c2)cc1 [D, (3S,4R,5R)-[4-[4-[3-(2-methoxy-benzyloxy)-propoxy]-phenyl]-5-(4-methoxy-naphthalen-2-ylmethoxy)-piperidin-3-yl]-methanol]
